Results published in ChEMBL document CHEMBL1130785, “A labeled guanidine ligand for studying sweet taste” (Bioorg Med Chem Lett, 1998).

Test: The compound was evaluated for binding affinity towards monoclonal antibody NC10.14 using competitive radioimmunoassay.

Kd: 18 nM
Compound: N#Cc1ccc(N/C(=N\CC(=O)O)NC(c2ccccc2)c2ccccc2)cc1
